Laboratory results: patent publication US20220226484A1, “THERAPEUTIC PEPTIDES” (COHBAR, INC., priority 2019, published 2022)

System: bleomycin-induced lung fibrosis in male C57BL/6 mice
Experiment: Therapeutic mouse model of idiopathic pulmonary fibrosis (bleomycin)
Type: in vivo
Conditions: peptide 5 mg/kg/day intraperitoneal, nintedanib 60 mg/kg/day PO
Description: The effect of the peptides on the progression of established lung fibrosis can be assessed by monitoring lung fibrosis, lung weight, inflammatory cells in bronchoalveolar lavage fluid (BALF), soluble collagen in BALF, and body weight change in a therapeutic mouse model of idiopathic pulmonary fibrosis. Lung fibrosis was induced in lungs of male C57BL/6 mice between the ages of 6 to 8 weeks by nasophayngeal administration of bleomycin (1.5 U/kg using bleomycin clinical formulation diluted in PBS). A control group of animals were administered saline by the nasopharyngeal route (no-bleomycin control group). After one week, bleomycin-treated animals were randomized to treatment groups (N=10 per group) by body weight and treated daily with vehicle control, nintedanib positive control (60 mg/kg/day PO) or peptide (5 mg/kg/day by intraperitoneal injection). After 14 days of treatment (Day 21), lungs were removed and weighed. The post-caval lobe was separated and snap frozen. The lungs were flushed with Hanks Buffer and bronchoalveolar lavage fluid (BALF) was harvested from each animal. Total BALF leukocyte were counted. Slides were prepared from the remaining BALF leukocytes, fixed and stained with May Geimsa stain and the differential counts were recorded manually. BALF was evaluated for soluble collagen using a Sircol assay. Lungs were fixed in 10% neutral buffered formalin (NBF) for histopathological analysis. Fibrosis was assessed by histopathological analysis of H&E stained mouse lungs using an Ashcroft scoring system.

With `COC(=O)c1ccc2c(c1)NC(=O)/C2=C(\Nc1ccc(N(C)C(=O)CN2CCN(C)CC2)cc1)c1ccccc1` [Nintedanib, nintedanib, reference compound] the “Mean (SEM) Leukocyte Count in BALF (Percent of Bleomycin Control)” value (Day 21, 14 days of treatment) was 62.4 (6.08) Percent, the “Mean (SEM) Lung Weight (Percent of Bleomycin Control)” value (Day 21, 14 days of treatment) was 75.2 (6.04) Percent and the “Mean (SEM) Percent Body Weight Change from Baseline” value (Day 21, 14 days of treatment) was −7.95 (6.09) Percent. The “Mean (SEM) Collagen Content in BALF (Percent of Bleomycin Control)” value (Sircol assay, Day 21) was 44.0 (6.48) Percent and the “Mean (SEM) Ashcroft Score (Percent of Bleomycin Control)” value (histopathology, Day 21) was 78.70 (9.72) Percent.
